# Where two headings read alike, the source gives them in different places. Positions of bridges follow the written chain, without caps; N, C: chain ends. Residues, ends and D or L forms follow the SMILES beside them. Chains are numbered I, II in the order given.
# Tests used:
# [1] = test system: Escherichia coli ATCC 25922; format: cell-based; settings: Escherichia coli ATCC 25922, reference strain
# Excerpt: (§1) MIC is defined as the lowest concentration, in an antibiotic dilution range, that inhibits visible bacterial growth. The importance of MIC sensitivity test is based on the principle that in vitro sensitivity provides a predictive indication of the in vivo efficacy of the antibiotic therapy. Values are expressed as molar concentration and compared to MIC values obtained with commercially available antibiotics such as amikacin, ceftriaxone and levofloxacin (Table 3).
# (§2) Reference strains (Escherichia coli ATCC 25922, Pseudomonas aeruginosa ATCC 27853, Staphylococus aureus ATCC 25923 and Chryseobacterium meningosepticum CCUG 4310) and several recent clinical isolates (including multidrug-resistant ones) of various species (Table 2) were used for conventional susceptibility testing experiments. Minimum Inhibitory Concentration (MIC) was determined by a standard microdilution assay as recommended by the National Commitee for Clinical Laboratory Standards (NCCLS) using cation-supplemented Mueller-Hinton (MH) broth (Oxoid Ltd. Basingstoke, UK) and a bacterial inoculum of 5×10^4 CFU per well, in a final volume of 100 μl. Results were recorded by visual inspection after 24 h of incubation at 37° C.
# [2] = test system: Escherichia coli W99FI0077; format: cell-based; settings: Escherichia coli W99FI0077, FQR ESCR (ESBL/SHV type)
# Excerpt: as §1, §2
# [3] = test system: Klebsiella pneumoniae W99FI0057; format: cell-based; settings: Klebsiella pneumoniae W99FI0057, ESCR (ESBL/SHV type)
# Excerpt: as §1, §2
# [4] = test system: Pseudomonas aeruginosa 885149; format: cell-based; settings: Pseudomonas aeruginosa 885149, FQR AGR ESCR CPR (MBL/IMP-13)
# Excerpt: as §1, §2
# [5] = test system: Pseudomonas aeruginosa 891; format: cell-based; settings: Pseudomonas aeruginosa 891, FQR AGR ESCR CPR (MBL/VIM-2)
# Excerpt: as §1, §2
# [6] = test system: Pseudomonas aeruginosa ATCC27853; format: cell-based; settings: Pseudomonas aeruginosa ATCC27853, reference strain
# Excerpt: as §1, §2
# [7] = test system: Staphylococcus aureus ATCC 25923; format: cell-based; settings: Staphylococcus aureus ATCC 25923, reference strain
# Excerpt: as §1, §2
# [8] = test system: Staphylococus aureus MIU-68A; format: cell-based, Staphylococcus aureus; settings: Staphylococus aureus MIU-68A, meticillin-susceptible
# Excerpt: as §1, §2
# E. coli strain TG1 = assay: Test of antibacterial activity (colony growth inhibition) on E. coli strain TG1; format: cell-based; settings: E. coli TG1, colony counting vs control without peptide
# Experimental: The antimicrobic activity of the peptides in linear form (L1, L4, L5, L6) and in MAP form (M1, M4, M5, M6) was assayed on the TG1 strain of E. coli. The peptides were incubated at various concentrations (2-1-0.5-0.25-0.12 mg/ml) with cells of E. coli (OD600=0.2) for about 1 hour at 37° C. Subsequently, the cells were plated on agar at dilution such to allow counting of individual colonies. The antimicrobic activity of the synthesised peptide L 1 and M1 is shown FIG. 1 and is compared to a non correlated MAP peptide (MNC) used as negative control.
# In one example, the tetrabranched MAP peptides with the amino acid sequence: QAKIRVRLSA [SEQ ID NO: 2], KIRVRLSA [SEQ ID NO: 3], QKKIRVRLSA [SEQ ID NO: 4] are used individually in a bacterial colony growth inhibition test. The test is conducted by incubating different concentrations of MAP peptides with E. coli (strain TG1) and plating bacterial cells on agar at a dilution such to allow for individual colonies counting. The following day, the number of colonies grown after treatment with the three MAP peptides is compared.
# Antimicrobic tests were conducted incubating for 75 min at 37° C., 25 μL of E. coli at the OD600 of 0.2 with 25 μl of MAP peptide dissolved in PBS at the various concentrations. The different incubations were further diluted 1:1000 in 2×TY medium and 100 μl were plated on solid 2×TY medium. The plates were left overnight at 30° C. and the individual grown colonies were counted and compared with a control, not treated with MAP peptide.
# E. coli ATCC 25922 = assay: Minimal bactericidal concentration (MBC); format: cell-based
# Experimental: as §2
# (§3) The MBC was determined as recommended by the National Committee for Clinical Laboratory Standards (NCCLS) on strains of E. coli ATCC 25922 and P. aeruginosa ATCC 27853.
# P. aeruginosa ATCC 27853 = assay: Minimal bactericidal concentration (MBC); format: cell-based
# Experimental: as §2, §3
# [9] = test system: murine macrophage cells J774 A.1; assay: Cytotoxicity test by MTT; format: cell-based, mouse
# Experimental: The cytotoxicity of antibacterial MAP peptides was evaluated on different eukaryotic cell lines by a colorimetric assay (MTT). This assay measures the cells' ability to convert a soluble tetrazolium salt into an insoluble precipitate: formazan. The cytotoxicity of M1 was evaluated on murine macrophagic cells (J774 A.1), murine myeloma cells (SPO) and Chinese hamster ovary epithelium cells (CHO K1). As shown FIG. 4, even at high concentrations (1 mg/ml) M1 cytotoxicity on CHO K1 cells and on SPO cells is low (percent survival is 80-90%).
# (§4) For cytotoxicity tests, different cell lines were used: murine myeloma cells SPO, hamster ovary epithelium cells CHO K 1, murine macrophage cells J774 A.1 and human keratinocytes HaCaT. The cells were plated in medium in RPMI 1640 (SPO and CHO K 1) and DMEM (J774 A.1 and HaCaT) with antibiotics and bovine foetal serum at 10%, in 96-well plates at the concentration of 6×10^4 (SPO, CHO K1 and J774 A.1) and 3×10^4 (HaCaT). Peptides, previously filtered with a 0.2 μm filter disk (Whatman), were added at various concentrations to the different cell lines and left in incubation over night at 37° C. Cell viability was determined adding the MTT tetrazolium salt at the concentration of 0.5 mg/ml and incubating for 90 min. The cells were solubilised with a solution at pH 4.5 containing SDS 10% and dimethylformamide 45% and read at the dual wavelength of 595/650 nm with a plate reader.
# [10] = test system: human keratinocytes HaCaT; assay: Cytotoxicity test by MTT; format: cell-based; settings: up to 1 mg/ml
# Experimental: as §4
# [11] = test system: Pichia pastoris yeast strain X33; assay: Effect on Pichia pastoris yeast colonies; format: cell-based; settings: Pichia pastoris X33, data not shown
# Experimental: To a volume of 50 μl of culture of Pichia pastoris grown 24 hour at 30° C. in YPD (Yeast Extract/Peptone/Dextrose) medium, 50 μl of MAP peptides (2 mg/ml) were added and left in incubation 150 min at 37° C. Subsequently, 50 μl of each incubation were plated on YPD solid medium and it was allowed to grow for 48 hours at 30° C. The number of colonies grown was compared with a control, where the yeast was not treated with the MAP.
# human erythrocytes = assay: Haemolysis, Parpart erythrocyte osmotic resistance assay; format: cell-based; settings: 19 hours incubation, 125 μg/ml
# Experimental: The haemolytic activity of M5 and M6 was also evaluated and is represented FIG. 9. Haemolysis of fresh human erythrocytes was determined at peptide concentrations ranging from 1 to 125 μg/ml. […] By contrast, after 19 hours of incubation, the haemolysis induced by M6 and M5 at 125 μg/ml is 7% and 19%, respectively. The percentage of haemolysis of untreated blood after 19 hours (control) is very limited (<1%).
# The haemolytic activity of the KIRVRLSA [SEQ ID NO: 3] (M5) and […] [SEQ ID NO: 4] (M6) peptides was evaluated by the Parpart erythrocyte osmotic resistance assay in NaCl. The percentage of haemolysis was calculated by means of a calibration curve obtained incubating the erythrocytes with increasing concentrations of NaCl and measuring the absorbance increase, due to haemolysis, at 540 nm. 0.9% NaCl solutions containing the MAP peptides at different concentrations were then prepared, whereto was added human blood in the ratio of 1:100 (v/v). The samples were left at ambient temperature for 30 min and 19 hours; subsequently, a portion was drawn for each incubation, centrifuged at 1500 rpm for 5 min and the absorbance of the super was measured with the spectrophotometer at 540 nm.
smiles,measurement,setting,value
"CC[C@H](C)[C@H](NC(=O)[C@@H](N)CCCCN)C(=O)N[C@@H](CCCNC(=N)N)C(=O)N[C@H](C(=O)N[C@@H](CCCNC(=N)N)C(=O)N[C@@H](CC(C)C)C(=O)N[C@@H](CO)C(=O)N[C@@H](C)C(=O)NCCCC[C@H](NC(=O)[C@H](C)NC(=O)[C@H](CO)NC(=O)[C@H](CC(C)C)NC(=O)[C@H](CCCNC(=N)N)NC(=O)[C@@H](NC(=O)[C@H](CCCNC(=N)N)NC(=O)[C@@H](NC(=O)[C@@H](N)CCCCN)[C@@H](C)CC)C(C)C)C(=O)NCCCC[C@H](NC(=O)[C@H](CCCCNC(=O)[C@H](C)NC(=O)[C@H](CO)NC(=O)[C@H](CC(C)C)NC(=O)[C@H](CCCNC(=N)N)NC(=O)[C@@H](NC(=O)[C@H](CCCNC(=N)N)NC(=O)[C@@H](NC(=O)[C@@H](N)CCCCN)[C@@H](C)CC)C(C)C)NC(=O)[C@H](C)NC(=O)[C@H](CO)NC(=O)[C@H](CC(C)C)NC(=O)[C@H](CCCNC(=N)N)NC(=O)[C@@H](NC(=O)[C@H](CCCNC(=N)N)NC(=O)[C@@H](NC(=O)[C@@H](N)CCCCN)[C@@H](C)CC)C(C)C)C(=O)N[C@@H](C)C(=O)O)C(C)C [M5, KIRVRLSA] (I: H-KIRVRLSAKKA-OH / II: H-KIRVRLSAK / III: H-KIRVRLSA / IV: H-KIRVRLSA; amide I:9-IV:C, I:10-II:C, II:9-III:C; N-terminus assumed)",MIC (Molarity),[1],3.8 µM
same,MIC (Molarity),[2],31 µM
same,MIC (Molarity),[3],>31 µM
same,MIC (Molarity),[4],7.6 µM
same,MIC (Molarity),[5],3.8 µM
same,MIC (Molarity),[6],3.8 µM
same,MIC (Molarity),[7],3.1e-05 M
same,MIC (Molarity),[7]; listed as KIRVRLSA,~10^−5 M
same,MIC (Molarity),[8],31 µM
same,Antibacterial activity on E. coli TG1 colony growth,E. coli strain TG1,good antibacterial activity
same,MBC (minimal concentration able to kill 99.9% of the inoculum) compared with MIC,E. coli ATCC 25922,equal to the calculated values of MIC
same,MBC (minimal concentration able to kill 99.9% of the inoculum) compared with MIC,E. coli ATCC 25922; listed as KIRVRLSA,equal to the corresponding MIC values
same,MBC (minimal concentration able to kill 99.9% of the inoculum) compared with MIC,P. aeruginosa ATCC 27853,equal to the calculated values of MIC
same,MBC (minimal concentration able to kill 99.9% of the inoculum) compared with MIC,P. aeruginosa ATCC 27853; listed as KIRVRLSA,equal to the corresponding MIC values
same,Effect on cell viability (MTT),"[9]; J774.A1, overnight, 30 μg/ml",did not substantially affect cell viability
same,Vitality of J774 A.1 cells as the concentration of MAP peptides increases (MTT),[9]; J774 A.1,decreases
same,Toxicity for human keratinocyte HaCaT cells (MTT),[10],low toxicity
same,Toxicity for human keratinocyte HaCaT cells (MTT),[10]; listed as KIRVRLSA,particularly resistant
same,Number of yeast colonies vs negative control,[11],did not differ from the negative control
same,haemolysis of human erythrocytes,human erythrocytes,19%

# Source: patent US8268961B2, “Antibacterial peptides and analogues thereof” (Universita Degli Studi di Siena, priority 2004, dated 2012)
